The record followed here is US5057427A, “Method for resolution of stereoisomers” (Sepracor, Inc., priority 1988, dated 1991).

Assay [1] concerns Protease XXIII: from Aspergillus oryzae (Enzyme A). As to the kind of experiment: Homogeneous aqueous enzymatic resolution (ester hydrolysis) with Enzyme A. To be noted: for % CONVERSION / % e.e.: 100 mg enzyme A; for % e.e.: acid product.
Protocol: 10.0 millimole (mmol) of ibuprofen substrate ester 1 (the methyl sulfonate derivative) was dissolved in 100 ml of 0.2 M phosphate buffer of the appropriate cation (sodium or potassium, to be the same as the substrate counterion) at pH 7.0. 100 mg of enzyme A, as the
commercial preparation, was added directly to this solution, and the reaction mixture was capped and then shaken briefly until all the enzyme preparation had dispersed or dissolved. The reaction mixture was then allowed to stand at ambient temperature (20°-22° C.) for 20 hours. […] The combined organic layers were backwashed twice with one volume of water, once with one volume of saturated NaCl solution, and then dried over MgSO4.
Evaporation of the ether under reduced pressure left the resolved ibuprofen acid product; no other purification was performed. The optical rotation was measured in EtOH at a concentration c=1.0 for the ibuprofen acid product.
In this Example, 0.010 mol of ibuprofen ester 3 (the propyl sulfonate derivative) was dissolved in 100 ml 0.2 M sodium phosphate buffer at pH 7.8, and 150 mg of the commercial enzyme A preparation was added. The reaction was then handled as described for Examples 6.2.1.1-6.2.1.7.
In this Example, 0.010 mol of ibuprofen ester 2 (the ethyl sulfonate ester in the form of its potassium salt) were dissolved in 125 ml of 0.2 M sodium phosphate buffer at pH 7.0, and 150 mg of enzyme A was added to the reaction mixture as the commercially supplied preparation. The reaction was allowed to proceed for 18 hours, and the resulting product mixture was then worked-up as described above for Examples 6.2.1.1-6.2.1.7.
150 mg of Protease XXIII (A), as the commercially available preparation, was added to the reaction mixture, the reaction vessel was capped, and the entire heterogeneous reaction mixture was shaken in a wrist-action shaker for 18 hours. […] This mixture was then extracted twice with 200 ml of diethyl ether. The combined organic layers were backwashed twice with one volume of water, once with one volume of saturated NaCl, and the organic phase was then dried over MgSO4. Evaporation of the ether under reduced pressure left the resolved naproxen acid. No further purification was performed. The optical rotation of the product was measured in CHCl3 at a concentration c=1.0.
0.010 mol of naproxen ester 8 (the potassium salt of the ethyl sulfonate ester) was dispersed in 125 ml of 0.2 M sodium phosphate buffer at pH 7.8. 150 mg of enzyme A, as the commercially available preparation, were added, and the reaction handled as described in Example 6.2.1.1.
0.010 mol of ibuprofen ester 6 (the compound) were dissolved in 100 ml of 0.2 M sodium phosphate buffer at pH 7.0. 100 mg of enzyme A was added as the commercially available preparation, and the reaction handled as described above in Examples 6.2.1.1-6.2.1.7.
2.0 gm (0.0058 mole) of naproxen ester 9 (the sulfomethyl compound) was dissolved in 400 ml of 50 mM sodium phosphate buffer at pH 7.5. To the reaction were added 100 mg of Protease XXIII (A) as the commercially available preparation. After the enzyme had dissolved, the reaction mixture was incubated at 25 degrees for 16 hours. The reaction mixture was then acidified to pH 1-2 by the careful dropwise addition of concentrated HCl, and then it was extracted with ether (3×150 ml). The aqueous layer was retained. The combined organic layers were backwashed with water (2×100 ml), and these aqueous washings were added to the previously retained aqueous layer of the reaction. The ether layer was then washed once with 100 ml of brine, and dried over MgSO4.
For assay [2], the target named is T1, Protease VIII: "Subtilopeptidase A" (subtilisin Carlsberg) (Enzyme B) (Bacillus licheniformis, UniProt P00780).
T1 sequence (P00780 106-379): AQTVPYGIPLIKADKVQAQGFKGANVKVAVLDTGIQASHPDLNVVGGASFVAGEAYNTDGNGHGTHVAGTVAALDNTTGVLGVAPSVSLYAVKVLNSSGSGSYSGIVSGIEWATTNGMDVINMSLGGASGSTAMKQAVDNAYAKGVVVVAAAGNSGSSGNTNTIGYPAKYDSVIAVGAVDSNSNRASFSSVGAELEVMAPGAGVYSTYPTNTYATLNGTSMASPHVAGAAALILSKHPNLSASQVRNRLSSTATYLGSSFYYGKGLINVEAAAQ
As to the kind of experiment: Homogeneous aqueous enzymatic resolution (ester hydrolysis) with Enzyme B. It is filed as biochemical. The note with it: for % CONVERSION / % e.e.: 100 mg enzyme B; for % e.e.: acid product.

For assay [3], the target named is T2, Protease XVI: from Bacillus subtilis (Enzyme C) (Bacillus subtilis, UniProt P04189).
T2 sequence (P04189 107-381): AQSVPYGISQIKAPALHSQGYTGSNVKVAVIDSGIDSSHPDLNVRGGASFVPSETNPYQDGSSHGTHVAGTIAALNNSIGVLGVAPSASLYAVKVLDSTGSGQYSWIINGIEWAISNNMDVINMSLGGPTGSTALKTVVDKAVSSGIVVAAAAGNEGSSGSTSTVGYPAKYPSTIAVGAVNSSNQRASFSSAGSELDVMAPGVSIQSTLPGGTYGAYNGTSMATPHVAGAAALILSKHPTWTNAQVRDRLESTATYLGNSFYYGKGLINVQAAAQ
Nature of the assay: Homogeneous aqueous enzymatic resolution (ester hydrolysis) with Enzyme C. The note with it: acid product; 100 mg enzyme C, 10 mmol ester in 100 ml 0.2 M phosphate buffer pH 7.0, 20-22° C., 20 hours. Format: biochemical.

Where [4] appears, read: 10.0 mmol ester in 100 ml 0.2 M buffer pH 7.0, 25° C., 18 hours.
[5] abbreviates: 10.0 mmol ester in 100 ml 0.2 M Na3 PO4 buffer pH 7.0, 25° C., 18 hours.
Where [6] appears, read: 10 mmol ester in 100 ml 0.2 M phosphate buffer pH 7.0, 20-22° C., 20 hours.
Where [7] appears, read: 100 mg Protease XXIII (A), pH 7.5, 25 degrees, 16 hours.

SMILES strings stand for the structures. Where a name gives a salt, the structure may show the parent alone. Where only a bound is given, the exact number is not on record here.

For the compound `CC(CSC(=O)c1ccccc1)C(=O)OCS(=O)(=O)O` (racemic) [Compound 16, Potassium Salt of the Sulfomethyl Ester of (+)-S-3-Benzoylthio-2-methylpropanoic Acid], in assay [1] (setting [4]), the “% CONVERSION” value came out at 53% and the “% e.e.” value amounted to 3%. Besides, in assay [2] (setting [5]), the “% CONVERSION” value is 26% and the “% e.e.” value turned out to be 10%.

In the case of `CC(C)Cc1ccc(C(C)C(=O)OCCS(=O)(=O)O)cc1` (centres unmarked) [Compound 2, Sodium Salt of 2-Sulfoethyl Ester of 2-(4-Isobutylphenyl)propanoic Acid], in assay [1] (setting [6]), the “% CONVERSION” value was found to be 22.3% and the “% e.e.” value is recorded as 93.3%.

Turning to `CC(C)Cc1ccc(C(C)C(=O)OCCCCS(=O)(=O)O)cc1` (centres unmarked) [Compound 4, Potassium Salt of 4-Sulfobutyl Ester of 2-(4-Isobutylphenyl)propanoic Acid], the “% e.e.” value is given as 61.7% in assay [3], 97.4% in assay [1] (setting [6]) and 92.1% in assay [2] (setting [6]). Besides, the results for the “% CONVERSION” value in assay [1] (setting [6]) and in assay [2] (setting [6]) were 43.2% and 20.0%, respectively.

As to `CC(C)Cc1ccc(C(C)C(=O)OCCOP(=O)(O)O)cc1` (centres unmarked) [Compound 5, Disodium Salt of the Phosphoric Acid Ester of the 2-Hydroxyethyl Ester of 2-(4-Isobutylphenyl)propanoic Acid], the “% e.e.” value in assay [3] came out at 75.6%.

As to `CC(C)Cc1ccc(C(C)C(=O)OCCCOS(=O)(=O)O)cc1` (centres unmarked) [Compound 6, Potassium Salt of the Sulfuric Acid Ester of 3-Hydroxypropyl Ester of 2-(4-Isobutylphenyl)propanoic Acid], in assay [1] (setting [6]), the “% CONVERSION” value is 24.3% and the “% e.e.” value came out at 96.5%.

With `COc1ccc2cc(C(C)C(=O)OCS(=O)(=O)O)ccc2c1` (centres unmarked) [Compound 9, Sodium Salt of Sulfomethyl Ester of 2-(6-Methoxy-2-naphthyl)propanoic Acid], in assay [1] (100 mg Protease XXIII (A), 2.0 gm ester in 400 ml 50 mM sodium phosphate buffer pH 7.5, 25 degrees, 16 hours), the “conversion (enzymatic hydrolysis)” value is recorded as 18%. In assay [1] (setting [7]), the “enantiomeric excess of R isomer (acid product)” value came to 61.2% and the “enantiomeric excess of S isomer (acid from remaining ester after hydrolysis at pH 12)” value was determined as 45.5%.

`CC(C)Cc1ccc(C(C)C(=O)OCC[N+](C)(C)C)cc1` (centres unmarked) [Compound 10, Iodide Salt of 2-(N,N,N-Trimethylammonium)ethyl Ester of 2-(4-Isobutylphenyl)propanoic Acid]: in assay [1] (setting [6]), the “% CONVERSION” value amounted to 30.1% and the “% e.e.” value was greater than 99%.

Turning to `CC(Cl)C(=O)OCCCS(=O)(=O)O` (centres unmarked) [Compound 13, Potassium Salt of 3-Sulfopropyl Ester of 2-Chloropropanoic Acid], in assay [2] (20 mg subtilisin protease (B), 8.05 gm ester in 300 ml 0.1 M potassium phosphate buffer pH 7.0), the “conversion as measured by titrimetry (reaction stopped)” value is reported as 25%.
